Test results published in patent US20260308159A1, “BICYCLIC HETEROARYLAMIDES HAVING GPR68 MODULATING ACTIVITY” (RECURSION PHARMACEUTICALS, INC., priority 2023, published 2026).

molecular target: T1, human GPR68 (Homo sapiens, UniProt Q15743); assay: GPR68 Biochemical Assay (Promega GloSensor cAMP assay, GPR68 antagonism); format: cell-based; conditions: HEK293T cells transiently expressing hGPR68, antagonism of pH 5.5 stimulated cAMP, 15 min, read-out: hGPR68 IC50
T1 construct: encoding full-length human GPR68 (uniprot ID: Q15743); expressed in transfected cells; host or cells: HEK293T
How it was run: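 HEK293T cells transiently co-transfected with full-length human GPR68 and GloSensor plasmids, preloaded 60 min with GloSensor substrate in pH 8.0 buffer. Compounds (9-point half-log series, top 50 μM final, 0.5% DMSO) added with pH 5.5 buffer (~EC80-90 stimulation); luminescence read after 15 min at room temperature. IC50 from sigmoidal fit of % inhibition.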

T1 sequence (Q15743 whole entry): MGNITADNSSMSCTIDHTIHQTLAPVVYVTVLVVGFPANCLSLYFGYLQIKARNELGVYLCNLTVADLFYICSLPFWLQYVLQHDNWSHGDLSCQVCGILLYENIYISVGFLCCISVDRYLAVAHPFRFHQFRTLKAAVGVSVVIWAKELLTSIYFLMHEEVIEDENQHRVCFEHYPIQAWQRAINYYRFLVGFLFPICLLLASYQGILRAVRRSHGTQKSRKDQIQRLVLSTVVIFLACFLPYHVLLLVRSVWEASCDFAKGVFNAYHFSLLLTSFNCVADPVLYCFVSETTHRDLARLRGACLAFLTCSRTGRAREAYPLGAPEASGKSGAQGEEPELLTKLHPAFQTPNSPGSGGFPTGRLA

Row | Structure (SMILES) | IC50
1 | NC(=O)c1cnn2c(C(=O)NC3COc4ccccc4C3)ccnc12 (centres unmarked) [Compound 6, N7-chroman-3-ylpyrazolo[1,5-a]pyrimidine-3,7-dicarboxamide] | 50 to 500 nM
2 | COCc1nn2c(C(=O)N[C@H]3COc4ccc(F)cc43)ccnc2c1C(N)=O [Compound 120, N7-[(3R)-5-fluoro-2,3-dihydrobenzofuran-3-yl]-2-(methoxymethyl)pyrazolo[1,5-a]pyrimidine-3,7-dicarboxamide] | < 50 nM
3 | COCc1nn2c(C(=O)NCc3ccc(O)cc3)ccnc2c1C(N)=O [Compound 197, N7-[(4-hydroxyphenyl)methyl]-2-(methoxymethyl)pyrazolo[1,5-a]pyrimidine-3,7-dicarboxamide] | 500 to 5000 nM
4 | Cc1nn2c(C(=O)N[C@H]3C[C@@H](C#N)C3)ccnc2c1C(N)=O [Compound 50, N7-(cis-3-cyanocyclobutyl)-2-methyl-pyrazolo[1,5-a]pyrimidine-3,7-dicarboxamide] | 500 to 5000 nM
5 | COCc1nn2c(C(=O)NC(c3ccc(F)cc3)C(F)(F)F)ccnc2c1C(N)=O (centres unmarked) [Compound 125, 2-(methoxymethyl)-N7-[2,2,2-trifluoro-1-(4-fluorophenyl)ethyl]pyrazolo[1,5-a]pyrimidine-3,7-dicarboxamide] | 500 to 5000 nM
6 | N#C[C@H]1C[C@@H](NC(=O)c2ccnc3c(C(N)=O)cnn23)C1 [Compound 9, N7-(cis-3-cyanocyclobutyl)pyrazolo[1,5-a]pyrimidine-3,7-dicarboxamide] | 500 to 5000 nM
7 | COCc1nn2c(C(=O)NCC3CC3)ccnc2c1C(N)=O [Compound 81, N7-(cyclopropylmethyl)-2-(methoxymethyl)pyrazolo[1,5-a]pyrimidine-3,7-dicarboxamide] | 50 to 500 nM
8 | Cc1cc(C(=O)NC2CCS(=O)(=O)c3ccccc32)n2nc(C3CC3)c(C(N)=O)c2n1 (centres unmarked) [Compound 242, 2-cyclopropyl-N7-(1,1-dioxo-3,4-dihydro-2H-thiochromen-4-yl)-5-methyl-pyrazolo[1,5-a]pyrimidine-3,7-dicarboxamide] | < 50 nM
9 | COCc1nc2c(C(=O)N[C@H]3CCS(=O)(=O)c4ccccc43)ccnn2c1C(N)=O [Compound 220, 2-(methoxymethyl)-N8-[(4S)-1,1-dioxo-3,4-dihydro-2H-thiochromen-4-yl]imidazo[1,2-b]pyridazine-3,8-dicarboxamide] | 50 to 500 nM
10 | NC(=O)c1c(C2CC2)nc2c(C(=O)NC3Cc4ccccc43)ccnn12 (centres unmarked) [Compound 210, N8-(7-bicyclo[4.2.0]octa-1,3,5-trienyl)-2-cyclopropyl-imidazo[1,2-b]pyridazine-3,8-dicarboxamide] | < 50 nM
11 | COCc1nc2c(C(=O)NC3Cc4ccccc43)ccnn2c1C(N)=O (centres unmarked) [Compound 106, N8-(7-bicyclo[4.2.0]octa-1,3,5-trienyl)-2-(methoxymethyl)imidazo[1,2-b]pyridazine-3,8-dicarboxamide] | < 50 nM
12 | COCc1nn2c(C(=O)NCC3CC3(C)C)ccnc2c1C(N)=O (centres unmarked) [Compound 77, N7-[(2,2-dimethylcyclopropyl)methyl]-2-(methoxymethyl)pyrazolo[1,5-a]pyrimidine-3,7-dicarboxamide] | 500 to 5000 nM
13 | NC(=O)c1c(C2CC2)nn2c(C(=O)NC3CC(F)(F)C3)ccnc12 [Compound 136, 2-cyclopropyl-N7-(3,3-difluorocyclobutyl)pyrazolo[1,5-a]pyrimidine-3,7-dicarboxamide] | < 50 nM
14 | COCc1nn2c(C(=O)NCC3CCC(F)(F)CC3)ccnc2c1C(N)=O [Compound 133, N7-[(4,4-difluorocyclohexyl)methyl]-2-(methoxymethyl)pyrazolo[1,5-a]pyrimidine-3,7-dicarboxamide] | < 50 nM
15 | COCc1nn2c(C(=O)N[C@H]3CC[C@@H](OC(F)(F)F)CC3)ccnc2c1C(N)=O [Compound 132, 2-(methoxymethyl)-N7-[cis-4-(trifluoromethoxy)cyclohexyl]pyrazolo[1,5-a]pyrimidine-3,7-dicarboxamide] | 50 to 500 nM

Second part, the molecule after the results:

Row | IC50 | Structure (SMILES)
16 | < 50 nM | CCOCc1nn2c(C(=O)NC3Cc4ccccc4C3)ccnc2c1C(N)=O [Compound 202, 2-(ethoxymethyl)-N7-indan-2-yl-pyrazolo[1,5-a]pyrimidine-3,7-dicarboxamide]
17 | 500 to 5000 nM | CNCc1nn2c(C(=O)NC3Cc4ccccc4C3)ccnc2c1C(N)=O [Compound 30, N7-indan-2-yl-2-(methylaminomethyl)pyrazolo[1,5-a]pyrimidine-3,7-dicarboxamide]
18 | 500 to 5000 nM | CN(C)Cc1nn2c(C(=O)NC3Cc4ccccc4C3)ccnc2c1C(N)=O [Compound 29, 2-[(dimethylamino)methyl]-N7-indan-2-yl-pyrazolo[1,5-a]pyrimidine-3,7-dicarboxamide]
19 | < 50 nM | COCc1nn2c(C(=O)NC3CC(F)(F)c4ccccc43)ccnc2c1C(N)=O (single isomer, unassigned) [Compound 174, N7-(3,3-difluoroindan-1-yl)-2-(methoxymethyl)pyrazolo[1,5-a]pyrimidine-3,7-dicarboxamide]
20 | 50 to 500 nM | COCc1nn2c(C(=O)NC3(C)CCc4ccccc43)ccnc2c1C(N)=O (centres unmarked) [Compound 155, 2-(methoxymethyl)-N7-(1-methylindan-1-yl)pyrazolo[1,5-a]pyrimidine-3,7-dicarboxamide]
21 | < 50 nM | COCc1nn2c(C(=O)NC3Cc4ccccc43)ccnc2c1C(N)=O (centres unmarked) [Compound 88, N7-(7-bicyclo[4.2.0]octa-1,3,5-trienyl)-2-(methoxymethyl)pyrazolo[1,5-a]pyrimidine-3,7-dicarboxamide]
22 | 50 to 500 nM | COCc1nn2c(C(=O)NCc3ccccc3)ccnc2c1C(N)=O [Compound 69, N7-benzyl-2-(methoxymethyl)pyrazolo[1,5-a]pyrimidine-3,7-dicarboxamide]
23 | < 50 nM | COCc1nn2c(C(=O)NC3CCc4ccc(OC)cc4C3)ccnc2c1C(N)=O (centres unmarked) [Compound 73, 2-(methoxymethyl)-N7-(7-methoxytetralin-2-yl)pyrazolo[1,5-a]pyrimidine-3,7-dicarboxamide]
24 | < 50 nM | COCc1nn2c(C(=O)NC3CS(=O)(=O)c4ccccc43)ccnc2c1C(N)=O (centres unmarked) [Compound 168, N7-(1,1-dioxo-2,3-dihydrobenzothiophen-3-yl)-2-(methoxymethyl)pyrazolo[1,5-a]pyrimidine-3,7-dicarboxamide]
25 | < 50 nM | COCc1nn2c(C(=O)N[C@H]3COc4c(Cl)cccc43)ccnc2c1C(N)=O [Compound 169, N7-[(3R)-7-chloro-2,3-dihydrobenzofuran-3-yl]-2-(methoxymethyl)pyrazolo[1,5-a]pyrimidine-3,7-dicarboxamide]
26 | < 50 nM | COCc1nn2c(C(=O)N[C@@H]3Cc4ccccc4[C@@H]3O)ccnc2c1C(N)=O (relative stereo) [Compound 200, N7-(cis-1-hydroxyindan-2-yl)-2-(methoxymethyl)pyrazolo[1,5-a]pyrimidine-3,7-dicarboxamide]
27 | 50 to 500 nM | Cc1cccc2c1CC(NC(=O)c1ccnc3c(C(N)=O)cnn13)C2 (centres unmarked) [Compound 2, N7-(4-methylindan-2-yl)pyrazolo[1,5-a]pyrimidine-3,7-dicarboxamide]
28 | 50 to 500 nM | CS(=O)(=O)Cc1nn2c(C(=O)NC3Cc4ccccc4C3)ccnc2c1C(N)=O [Compound 215, N7-indan-2-yl-2-(methylsulfonylmethyl)pyrazolo[1,5-a]pyrimidine-3,7-dicarboxamide]
29 | < 50 nM | COCc1nn2c(C(=O)NC3Cc4cc(F)c(F)cc4C3)ccnc2c1C(N)=O [Compound 195, N7-(5,6-difluoroindan-2-yl)-2-(methoxymethyl)pyrazolo[1,5-a]pyrimidine-3,7-dicarboxamide]
30 | < 50 nM | COCc1nn2c(C(=O)NC3Cc4cscc4C3)ccnc2c1C(N)=O [Compound 85, N7-(5,6-dihydro-4H-cyclopenta[c]thiophen-5-yl)-2-(methoxymethyl)pyrazolo[1,5-a]pyrimidine-3,7-dicarboxamide]
31 | < 50 nM | COCc1nc2c(C(=O)NC3Cc4ccccc4C3)ccnn2c1C(N)=O [Compound 56, N8-indan-2-yl-2-(methoxymethyl)imidazo[1,2-b]pyridazine-3,8-dicarboxamide]
32 | 500 to 5000 nM | NC(=O)c1c(-c2cccnn2)nn2c(C(=O)NC3Cc4ccccc4C3)ccnc12 [Compound 22, N7-indan-2-yl-2-pyridazin-3-yl-pyrazolo[1,5-a]pyrimidine-3,7-dicarboxamide]
33 | 50 to 500 nM | COCc1nn2c(C(=O)NC3Cc4cccnc4C3)ccnc2c1C(N)=O (single isomer, unassigned) [Compound 146, N7-(6,7-dihydro-5H-cyclopenta[b]pyridin-6-yl)-2-(methoxymethyl)pyrazolo[1,5-a]pyrimidine-3,7-dicarboxamide]
34 | 50 to 500 nM | COCc1nn2c(C(=O)NC3Cc4ccccc4C3)ccnc2c1C(N)=S [Compound 149, 3-carbamothioyl-N-indan-2-yl-2-(methoxymethyl)pyrazolo[1,5-a]pyrimidine-7-carboxamide]
35 | < 50 nM | COCc1nn2c(C(=O)NC3Cc4ccccc4C3(F)F)ccnc2c1C(N)=O (centres unmarked) [Compound 152, N7-(1,1-difluoroindan-2-yl)-2-(methoxymethyl)pyrazolo[1,5-a]pyrimidine-3,7-dicarboxamide]
36 | 5000 to 50000 nM | Cc1nn2c(C(=O)NC3Cc4ccncc4C3)ccnc2c1C(N)=O (centres unmarked) [Compound 52, N7-(6,7-dihydro-5H-cyclopenta[c]pyridin-6-yl)-2-methyl-pyrazolo[1,5-a]pyrimidine-3,7-dicarboxamide]

same assay, conditions: hGPR68 IC50, HEK293T cells transiently expressing hGPR68, antagonism of pH 5.5 stimulated cAMP, 15 min

Row | IC50 | Structure (SMILES)
37 | 500 to 5000 nM | COc1cc(C(=O)NC2CC(F)(F)C2)n2nc(C)c(C(N)=O)c2n1 [Compound 41, N7-(3,3-difluorocyclobutyl)-5-methoxy-2-methyl-pyrazolo[1,5-a]pyrimidine-3,7-dicarboxamide]
38 | < 50 nM | NC(=O)c1c(C2CCOC2)nn2c(C(=O)NC3Cc4ccccc4C3)ccnc12 (centres unmarked) [Compound 37, N7-indan-2-yl-2-tetrahydrofuran-3-yl-pyrazolo[1,5-a]pyrimidine-3,7-dicarboxamide]
